In patent publication US20230097009A1, “USE OF COMPOUND IN PREVENTION AND/OR TREATMENT OF PATHOGEN INFECTION IN ANIMALS” (FELICAMED BIOTECHNOLOGY CO., LTD., priority 2020, published 2023):

Tests used:
feline coronavirus = assay: Treatment of a cat with recurrent wet FIP (Example 1): daily clinical observation, body weight, chest X-ray; assay type: in vivo; details: for body weight: 2.5 kg at enrollment (D0)
Description: A female British shorthair cat (Lele) of 2.5 kg, aged 8 month, unneutered. The cat had symptoms of increased body temperature, mental depression, decreased appetite, and increased abdominal girth in January, 2020. After 1 week, the cat was admitted. On January 18, the cat was diagnosed with feline infectious peritonitis (FIP) positive. After being treated with GS-441524 for 3 days, the cat was then administered with furosemide, Synulox®, prednisolone and itraconazole (P.O., q24h, 10 mg/kg) for 1 month. The drugs were discontinued after ascites regressed. Early in April, the disease recurred, showing decreased food intake and listlessness. […] The cat was enrolled on April 8, and was treated with the drug of the present invention at 2.0 mg/kg (SC, q24h) on days 1-14 (D1-14). Proper supportive treatments were given at the same time, including adjuvant treatment such as Moringa (a hepatoprotective drug), Lysinphirst (lysine) and Doctor Dolittle® (lactoferrin).
The pharmaceutically active compound described above is a pure powder have the following structure. The compound was added to a 0.9% normal saline (50 mL of endotoxin-free water and 0.45 g of NaCl), and the mixture was uniformly mixed and filtered through a filter membrane to give a clarified solution. The diluted compound was stored in a plastic-sealed sterile vial, stored in a refrigerator at 4° C., slowly heated to room temperature before injection, and administered using a disposable syringe. The injection ranged across the back, starting from 2 cm posterior to the scapula to the middle of the lumbar spine, half of the distance of the adjacent chest to flank.
The treatment was given by injection in the morning every day. […]
The hydrothorax completely regressed since about 7 days after the treatment. The body weight increased by 9% during and after the treatment.

[1] = tested on: feline infectious peritonitis virus; assay: Clinical survival of cats with clinically confirmed FIP, treatment group vs control group (Example 2); assay type: in vivo, cat; details: 7 treated vs 8 control cats with FIP; GS-441524 pre-treatment 3 days; 2.0 mg/kg SC q24h D1-D14; death or neurological symptoms = clinical death; 14 days
Text: A total of 15 cats with clinically confirmed FIP were enrolled, with hydrothorax/ascites, positive CT value by PCR, and no neurological symptoms. 8 cats were allocated into the control group, and 7 cats were allocated into the treatment group.
The groups were pre-treated with GS-441524 for 3 days. For the control group, necessary supportive treatment was given on D1—D14.
The occurrence of death or neurological symptoms was judged as clinical death, and the clinical survival curve was plotted after 14 days.
The Log Rank (Mantel-Cox) and Breslow (Generalized Wilcoxon) methods were used for validity test, and both methods indicated a significant difference (P<0.05). The above description is only for the purpose of illustrating the preferred example of the present invention, and is not intended to limit the scope of the present invention. Any modifications, equivalents and the like made without departing from the spirit and principle of the present invention should be included in the protection scope of the present invention.

[2] = D1, cat with FIP, 2.0 mg/kg SC q24h
[3] = D2, cat with FIP, 2.0 mg/kg SC q24h
[4] = D3, cat with FIP, 2.0 mg/kg SC q24h
[5] = D4, cat with FIP, 2.0 mg/kg SC q24h
[6] = D5, cat with FIP, 2.0 mg/kg SC q24h
[7] = D6, cat with FIP, 2.0 mg/kg SC q24h
[8] = D7, cat with FIP, 2.0 mg/kg SC q24h
[9] = D8, cat with FIP, 2.0 mg/kg SC q24h
[10] = D9, cat with FIP, 2.0 mg/kg SC q24h
[11] = D10, cat with FIP, 2.0 mg/kg SC q24h
[12] = D11, cat with FIP, 2.0 mg/kg SC q24h
[13] = D12, cat with FIP, 2.0 mg/kg SC q24h
[14] = D13, cat with FIP, 2.0 mg/kg SC q24h
[15] = D14, cat with FIP, 2.0 mg/kg SC q24h

CN1CCC(c2ncc(-c3cnc(N)c(OCc4cccc(C#CC(C)(C)O)c4)c3)s2)CC1 [the drug of the present invention, 4-(3-(((2-amino-5-(2-(1-methylpiperidin-4-yl)thiazol-5-yl)pyridin-3-yl)oxy)methyl)phenyl)-2-methylbut-3-yn-2-ol]
Body temperature Afternoon (feline coronavirus; [2]): 38.6 °C
Defecation condition (feline coronavirus; [2]): Normal
Respiratory state (feline coronavirus; [2]): Normal
Body temperature Afternoon (feline coronavirus; [3]): 38.1 °C
Defecation condition (feline coronavirus; [3]): Normal
Respiratory state (feline coronavirus; [3]): Normal
Food intake (feline coronavirus; D2, cat with FIP, 2.0 mg/kg SC q24h, D0 Decreased intake - 3): Improved - 4
Mental state (feline coronavirus; D2, cat with FIP, 2.0 mg/kg SC q24h, D0 Listless - 3): Improved - 4
Body temperature Afternoon (feline coronavirus; [4]): 38 °C
Defecation condition (feline coronavirus; [4]): Normal
Respiratory state (feline coronavirus; [4]): Normal
Food intake (feline coronavirus; D3, cat with FIP, 2.0 mg/kg SC q24h, D0 Decreased intake - 3): Good - 5
Mental state (feline coronavirus; D3, cat with FIP, 2.0 mg/kg SC q24h, D0 Listless - 3): Good - 5
Body temperature Afternoon (feline coronavirus; [5]): 38.3 °C
Defecation condition (feline coronavirus; [5]): Normal
Food intake (feline coronavirus; [5]): Good
Mental state (feline coronavirus; [5]): Good
Respiratory state (feline coronavirus; [5]): Normal
Body temperature Afternoon (feline coronavirus; [6]): 38.3 °C
Defecation condition (feline coronavirus; [6]): Normal
Food intake (feline coronavirus; [6]): Good
Mental state (feline coronavirus; [6]): Good
Respiratory state (feline coronavirus; [6]): Normal
Body temperature Afternoon (feline coronavirus; [7]): 38.3 °C
Defecation condition (feline coronavirus; [7]): Normal
Food intake (feline coronavirus; [7]): Good
Mental state (feline coronavirus; [7]): Good
Respiratory state (feline coronavirus; [7]): Normal
Body temperature Afternoon (feline coronavirus; [8]): 38.1 °C
Defecation condition (feline coronavirus; [8]): Normal
Food intake (feline coronavirus; [8]): Good
Mental state (feline coronavirus; [8]): Good
Respiratory state (feline coronavirus; [8]): Normal
body weight (feline coronavirus; [8]): 2.75 kg
Body temperature Afternoon (feline coronavirus; [9]): 38 °C
Defecation condition (feline coronavirus; [9]): Normal
Food intake (feline coronavirus; [9]): Good
Mental state (feline coronavirus; [9]): Good
Respiratory state (feline coronavirus; [9]): Normal
Body temperature Afternoon (feline coronavirus; [10]): 38.2 °C
Defecation condition (feline coronavirus; [10]): Normal
Food intake (feline coronavirus; [10]): Good
Mental state (feline coronavirus; [10]): Good
Respiratory state (feline coronavirus; [10]): Normal
Body temperature Afternoon (feline coronavirus; [11]): 38.3 °C
Defecation condition (feline coronavirus; [11]): Normal
Food intake (feline coronavirus; [11]): Good
Mental state (feline coronavirus; [11]): Good
Respiratory state (feline coronavirus; [11]): Normal
Body temperature Afternoon (feline coronavirus; [12]): 38.4 °C
Defecation condition (feline coronavirus; [12]): Normal
Food intake (feline coronavirus; [12]): Good
Mental state (feline coronavirus; [12]): Good
Respiratory state (feline coronavirus; [12]): Normal
Body temperature Afternoon (feline coronavirus; [13]): 38.5 °C
Defecation condition (feline coronavirus; [13]): Normal
Food intake (feline coronavirus; [13]): Good
Mental state (feline coronavirus; [13]): Good
Respiratory state (feline coronavirus; [13]): Normal
Body temperature Afternoon (feline coronavirus; [14]): 38.5 °C
Body temperature Morning (feline coronavirus; [14]): 38.9 °C
Defecation condition (feline coronavirus; [14]): Normal
Food intake (feline coronavirus; [14]): Good
Mental state (feline coronavirus; [14]): Good
Respiratory state (feline coronavirus; [14]): Normal
Body temperature Afternoon (feline coronavirus; [15]): 38.4 °C
Body temperature Morning (feline coronavirus; [15]): 38.4 °C
Defecation condition (feline coronavirus; [15]): Normal
Food intake (feline coronavirus; [15]): Good
Mental state (feline coronavirus; [15]): Good
Respiratory state (feline coronavirus; [15]): Normal
body weight (feline coronavirus; [15]): 2.75 kg
clinical response (appetite, mental state, weight) (feline coronavirus; after 2 weeks of treatment, cat with FIP, 2.0 mg/kg SC q24h): remarkable clinical response
body weight increase during and after the treatment (feline coronavirus; cat with FIP, 2.0 mg/kg SC q24h D1-14): 9%
body temperature maintained throughout the treatment (feline coronavirus; cat with FIP, no fever at enrollment, 2.0 mg/kg SC q24h D1-14): 38-38.5 °C
time after which the hydrothorax completely regressed (feline coronavirus; cat with wet FIP (chest), 2.0 mg/kg SC q24h, chest X-ray): about 7 days
clinical survival vs control group, P (Log Rank (Mantel-Cox) and Breslow (Generalized Wilcoxon)) [1]: < 0.05
